# Assay results from a compilation of properties of binary mixtures (doi:10.1021/je100113r).
# Assay: xn = mol fraction of the nth substance listed
# Settings: 300 K, 101 kPa
Compound,electrical conductivity (x2 = 0.198) [S/m],electrical conductivity (x2 = 0.498) [S/m],electrical conductivity (x2 = 0.598) [S/m],electrical conductivity (x2 = 0.503) [S/m],electrical conductivity (x2 = 0.603) [S/m],electrical conductivity (x2 = 0.201) [S/m],electrical conductivity (x2 = 0.302) [S/m],electrical conductivity (x2 = 0.502) [S/m],electrical conductivity (x2 = 0.802) [S/m]
CCCCCCCCCCCCCCCC[P+](c1ccccc1)(c1ccccc1)c1ccccc1.[Br-] + O,0.0003,0.0003,0.0004,,,,,,
[Br-].[PH3+]CCCCCCCCCCCCCC(c1ccccc1)(c1ccccc1)c1ccccc1 + O,,,,0.002,0.0006,,,,
CCCCCCCCCCCCCCCC[P+](CCCC)(CCCC)CCCC.[Br-] + O,,,,,0.0004,0.0004,0.0004,0.0004,0.0004
